From ChEMBL document CHEMBL1201862, “PubChem BioAssay data set” (2004)
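Method: 48-hour compound exposure of cells in 96-well plates, five concentrations, linear interpolation of endpoints. Abbreviation: GI50, concentration required for 50% inhibition of growth.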 Activity calls are given as the source filed them. No stated cut-off is given here; in the data, active = GI50 up to about 1.1 µM and inactive = higher.

What was measured:
Assay in all cases: NCI-60 cell line screen, 48 h
CCRF-CEM = test system: CCRF-CEM
COLO 205 = test system: COLO 205
DU-145 = test system: DU-145
HOP-92 = test system: HOP-92
HT-29 = test system: HT-29
K562 = test system: K562
KM12 = test system: KM12
MDA-MB-435 = test system: MDA-MB-435
MDA-N = test system: MDA-N
NCI/ADR-RES = test system: NCI/ADR-RES
OVCAR-5 = test system: OVCAR-5
PC-3 = test system: PC-3
SK-MEL-5 = test system: SK-MEL-5
SNB-19 = test system: SNB-19
SW-620 = test system: SW-620
T47D = test system: T47D
U-251 = test system: U-251
SF-539 = test system: SF-539

| Structure (SMILES) | GI50 (CCRF-CEM) | GI50 (COLO 205) | GI50 (DU-145) | GI50 (HOP-92) | GI50 (HT-29) | GI50 (K562) | GI50 (KM12) | GI50 (MDA-MB-435) | GI50 (MDA-N) | GI50 (NCI/ADR-RES) | GI50 (OVCAR-5) | GI50 (PC-3) | GI50 (SK-MEL-5) | GI50 (SNB-19) | GI50 (SW-620) | GI50 (T47D) | GI50 (U-251) | GI50 (SF-539) |
| --- | --- | --- | --- | --- | --- | --- | --- | --- | --- | --- | --- | --- | --- | --- | --- | --- | --- | --- |
| O=C(NCCCl)Nc1ccccc1 | > 100 µM (inactive) | > 100 µM (inactive) | > 100 µM (inactive) | > 100 µM (inactive) | > 100 µM (inactive) | > 100 µM (inactive) | > 100 µM (inactive) | > 100 µM (inactive) | > 100 µM (inactive) | > 100 µM (inactive) | > 100 µM (inactive) | > 100 µM (inactive) | > 100 µM (inactive) | > 100 µM (inactive) | > 100 µM (inactive) | > 100 µM (inactive) | > 100 µM (inactive) |  |
| NC(=O)C(=CNC(=S)Nc1ccc(Cl)c(Cl)c1)C(N)=O | > 80.4 µM (inactive) | 42.8 µM (inactive) | > 100 µM (inactive) | 33.1 µM (inactive) | 46.3 µM (inactive) | > 70 µM (inactive) | 55.1 µM (inactive) | 44.8 µM (inactive) | 47.4 µM (inactive) | 85.1 µM (inactive) | > 100 µM (inactive) | > 66.4 µM (inactive) | 42.3 µM (inactive) | > 94.8 µM (inactive) | > 100 µM (inactive) | 12.2 µM (inactive) | > 56 µM (inactive) | 26.7 µM (inactive) |
| CNC(=O)OCC1=C(COC(=O)NC)CN(c2ccccc2)C1 | > 100 µM (inactive) | > 100 µM (inactive) | > 100 µM (inactive) | > 100 µM (inactive) | > 100 µM (inactive) | > 100 µM (inactive) | > 100 µM (inactive) | > 100 µM (inactive) | > 100 µM (inactive) | > 100 µM (inactive) | > 100 µM (inactive) | > 100 µM (inactive) | > 100 µM (inactive) | > 100 µM (inactive) | > 100 µM (inactive) | > 100 µM (inactive) | > 100 µM (inactive) | > 100 µM (inactive) |
| O=C1c2cc3c(cc2CC12Cc1ccc4c(c1C2=O)CCCC4)CCCC3 (stereo not given) | > 100 µM (inactive) |  | > 100 µM (inactive) | 21.4 µM (inactive) | > 100 µM (inactive) | > 100 µM (inactive) |  | > 100 µM (inactive) | > 100 µM (inactive) | 44.7 µM (inactive) | > 100 µM (inactive) | > 100 µM (inactive) | > 100 µM (inactive) | 40.8 µM (inactive) | > 100 µM (inactive) | > 100 µM (inactive) | 24 µM (inactive) | 36.1 µM (inactive) |
| Cc1c2oc3c(C)cnc(C(=O)NC4C(=O)NC(C(C)C)C(=O)N5CCCC5C(=O)N(C)CC(=O)N(C)C(C(C)C)C(=O)OC4C)c3nc-2c(C(=O)NC2C(=O)NC(C(C)C)C(=O)N3CCCC3C(=O)N(C)CC(=O)N(C)C(C(C)C)C(=O)OC2C)c(N)c1=O (stereo not given) | 0.121 µM (active) | 1.8 µM (inactive) | 4.72 µM (inactive) | 2.84 µM (inactive) | 1.29 µM (inactive) | 0.231 µM (active) | 5.94 µM (inactive) | 2.74 µM (inactive) | 0.979 µM (active) | > 61 µM (inactive) | 13.2 µM (inactive) | 2.67 µM (inactive) | 1.04 µM (active) | 0.682 µM (active) | 0.346 µM (active) | 1.07 µM (active) | 0.931 µM (active) | 1.42 µM (inactive) |
| Cc1cccc2c1C(=O)[C@](C)([C@]1(C)Nc3cccc(C)c3C1=O)N2 | 17.6 µM (inactive) | 19.7 µM (inactive) | 54.1 µM (inactive) | 27.3 µM (inactive) | 29.1 µM (inactive) | 30.8 µM (inactive) | 35.6 µM (inactive) | 15.7 µM (inactive) | 25 µM (inactive) | 27.7 µM (inactive) | 24.3 µM (inactive) | 14.4 µM (inactive) | 29.4 µM (inactive) | 27.3 µM (inactive) | 30.7 µM (inactive) | 28.8 µM (inactive) | 60.3 µM (inactive) | 29 µM (inactive) |
| CN(C)CCOc1ccc2[nH]c(C(=O)N3CC(CCl)c4c3cc(NC(=O)OCc3ccc([N+](=O)[O-])cc3)c3ccccc43)cc2c1 (stereo not given) | 0.162 µM (active) | 1.64 µM (inactive) | 0.552 µM (active) | 1.5 µM (inactive) |  | 0.237 µM (active) | 1.29 µM (inactive) | 1.6 µM (inactive) | 1.6 µM (inactive) | 1.34 µM (inactive) | 1.6 µM (inactive) | 1.46 µM (inactive) | 1.45 µM (inactive) | 1.71 µM (inactive) | 1.19 µM (inactive) | 1.55 µM (inactive) | 1.36 µM (inactive) | 1.69 µM (inactive) |
| C/C=C1/CN2CCC34c5ccccc5N(C)C23C2CC1C4(C(=O)OC)C(OC(C)=O)O2 (stereo not given) | > 100 µM (inactive) | > 100 µM (inactive) | > 100 µM (inactive) | > 100 µM (inactive) | > 100 µM (inactive) | > 100 µM (inactive) | > 100 µM (inactive) | > 100 µM (inactive) | > 100 µM (inactive) | > 100 µM (inactive) | > 100 µM (inactive) | > 100 µM (inactive) | > 100 µM (inactive) | > 100 µM (inactive) | > 100 µM (inactive) | > 100 µM (inactive) | > 100 µM (inactive) | > 100 µM (inactive) |
| Cc1ccc(Nc2c(C#N)[n+]([O-])c3cc(Cl)ccc3[n+]2[O-])cc1 | 3.23 µM (inactive) | 18.4 µM (inactive) | > 100 µM (inactive) | > 100 µM (inactive) | 11.2 µM (inactive) | 11 µM (inactive) | 12.6 µM (inactive) | 44.7 µM (inactive) | > 53.8 µM (inactive) | 9.95 µM (inactive) | > 100 µM (inactive) | 9.66 µM (inactive) |  | > 100 µM (inactive) | 37.5 µM (inactive) | > 100 µM (inactive) | 29.3 µM (inactive) | 26.6 µM (inactive) |
| Cc1cccc2c1CC1(Cc3c(C)cccc3C1=O)C2=O | > 100 µM (inactive) |  | > 100 µM (inactive) | > 100 µM (inactive) | > 100 µM (inactive) | > 100 µM (inactive) |  | > 100 µM (inactive) | > 100 µM (inactive) | > 100 µM (inactive) | > 100 µM (inactive) | > 100 µM (inactive) | > 100 µM (inactive) | > 100 µM (inactive) | > 100 µM (inactive) | > 100 µM (inactive) | > 100 µM (inactive) | > 100 µM (inactive) |
| COC(=O)/C=C\C(C#N)(C#N)/N=C/c1cccs1 | 0.533 µM (active) | 3.68 µM (inactive) | 10.7 µM (inactive) | 1.84 µM (inactive) | 2 µM (inactive) | 3.95 µM (inactive) | 17.2 µM (inactive) | 5.16 µM (inactive) | 8.22 µM (inactive) | 18.4 µM (inactive) | 5.92 µM (inactive) | 13.1 µM (inactive) | 0.813 µM (active) | 30.8 µM (inactive) | 1.87 µM (inactive) | 2.93 µM (inactive) | 16.6 µM (inactive) |  |
| C#CCOC(=O)C(N)CC(N)=O (stereo not given) | > 100 µM (inactive) | > 100 µM (inactive) | > 100 µM (inactive) | > 100 µM (inactive) | > 31.6 µM (inactive) | 21.2 µM (inactive) | > 100 µM (inactive) | > 100 µM (inactive) | > 100 µM (inactive) | > 100 µM (inactive) | > 100 µM (inactive) | > 100 µM (inactive) | > 100 µM (inactive) | > 100 µM (inactive) | > 100 µM (inactive) | > 69 µM (inactive) | > 100 µM (inactive) | > 100 µM (inactive) |
| COc1cc2c3c(c1O)-c1c(ccc(OC)c1OC)CC3N(C)CC2 (stereo not given) | 91.4 µM (inactive) | > 100 µM (inactive) | > 100 µM (inactive) | > 100 µM (inactive) | 77.4 µM (inactive) |  | > 100 µM (inactive) | > 100 µM (inactive) | > 100 µM (inactive) | > 100 µM (inactive) | > 100 µM (inactive) | > 100 µM (inactive) | > 100 µM (inactive) | > 100 µM (inactive) | > 100 µM (inactive) | > 100 µM (inactive) | > 100 µM (inactive) | > 100 µM (inactive) |
| OCC(O)COCn1cc(Cn2ncc3c(NCc4ccccc4)ncnc32)nn1 (stereo not given) | > 100 µM (inactive) | > 100 µM (inactive) | > 100 µM (inactive) | > 100 µM (inactive) | > 100 µM (inactive) |  | > 100 µM (inactive) | > 100 µM (inactive) | > 100 µM (inactive) | > 100 µM (inactive) | > 100 µM (inactive) | > 100 µM (inactive) | > 100 µM (inactive) | > 100 µM (inactive) | > 100 µM (inactive) | > 100 µM (inactive) | > 100 µM (inactive) | > 100 µM (inactive) |
| C[C@H](CCC(=O)O)[C@H]1CC[C@H]2[C@@H]3[C@@H](O)C[C@@H]4C[C@H](O)CC[C@]4(C)[C@H]3CC[C@]12C | 60.8 µM (inactive) | > 100 µM (inactive) | > 100 µM (inactive) | > 100 µM (inactive) | > 100 µM (inactive) | 69.8 µM (inactive) | 60 µM (inactive) | > 100 µM (inactive) | > 100 µM (inactive) | 38.7 µM (inactive) | > 100 µM (inactive) | 45.4 µM (inactive) | 62.1 µM (inactive) | > 100 µM (inactive) | > 100 µM (inactive) | > 100 µM (inactive) | 58.6 µM (inactive) | > 100 µM (inactive) |
